From patent publication USH1168H, “Inhibitors of protein kinase C activity as protectors against septic shock and reducers of ARDS” (priority 1991, dated 1993)
“Also recorded” adds a separate entry of the source.

Key:
[1] = tested on: myosin light chain kinase; conditions: to an extent comparable to H7 (20); cited from earlier work
cAMP dependent kinase = conditions: to an extent comparable to H7 (20); cited from earlier work
[2] = tested on: intact endothelium rat aortic rings; assay: KCl-induced contraction of intact rat aortic rings after 16 h incubation with LPS and/or PKC inhibitors; type: cell-based; conditions: for EC50: Rattus norvegicus, 16 h, intact endothelium, read-out: EC50 value for KCl stimulated contraction (EC50 of the agonist KCl)
Method: FIG. 2 is a graph showing contraction to cumulative doses of KCl by rat aortic rings incubated for 16 hr in combinations of control, LPS, H7, and HA1004 treated media. (Panel A) Response by rings incubated in medium only (open circles), medium plus H7 (25 μM, closed circles), medium containing LPS (10 ng/ml, open triangles), and medium containing LPS plus H7 (closed triangles). (Panel B) For clarity in presentation, responses by rings incubated in medium only (open circles) and LPS treated medium (open triangles) are reproduced from Panel A. Additional rings were incubated in medium plus HA1004 (25 μM, closed circles), and medium containing LPS plus HA1004 (closed triangles). Rings were prepared and data is presented as described in FIG. 1. N=6 rats.
(§1) Tissue preparation and incubation. Male Sprague-Dawley rats (250-350 g, Taconic Farms, Germantown, N.Y.) were used. Rat thoracic aortic rings were prepared and incubated as detailed by McKenna (14). In brief, 4 or 6 rings were prepared from each rat. Care was taken during dissection to maintain the patency of the endothelium. Some aortas were de-endothelialized before sectioning into rings by perfusion with phosphate buffered saline (PBS) containing 1% deoxycholate for 30 sec followed by a PBS and bubble rinse for 5 min. Rings were incubated in DME (Dulbecco's Modified Eagle's medium) supplemented with 1% fetal calf serum, 100 μg/ml streptomycin, and 100 U/ml penicillin. During incubation, the rings were exposed to combinations of LPS (10 or 35 ng/ml), H7 (25 μM), HA1004 (N-(2-guanidinoethyl)-5-isoquinolinesulfonamide) (25 μM), sphingosine (20 μM), or their vehicles. […] Rings used in measures of contractile performance were placed individually in Petri dishes containing 1.2 ml DME and were distributed so that tissue isolated from each aorta was allocated to every combination of treatments within an experiment. […] All tissue isolated from an aorta (six rings) was allocated to a single treatment. The media and rings were rotated gently for 16-18 hr in an incubator at 37° C. under a 95% O2 -5% CO2 atmosphere.
(§2) Measurement of aortic ring contraction. After incubation, rings were mounted in tissue baths, equilibrated, and pre-contracted as previously detailed (14). These procedures required approximately 90 min. Rings were maintained in Krebs Ringer Bicarbonate buffer (KRB, 14). Contractions by six or eight rings were measured simultaneously and recorded on multichannel strip chart recorders. […] Other rings were contracted by withdrawing KRB from the tissue baths and adding increasing volumes of a high KCl KRB (120 mM, made by equimolar substitution of KCl for NaCl) to the baths to yield final KCl concentrations of 10 to 80 mM. All rings were blotted and weighed after experiments were completed.
(§3) Statistics. […] Tests for differences between EC50 values were based on log EC50 values (17). EC50 values were then converted to […] means to allow expression as nanomolar concentrations. Examination of differences among four or six treatment means was by randomized blocks analysis of variance; if significant differences were present, then pairs of means were tested by Student-Newman-Keuls a posteriori tests (18). Paired t-tests were used to assess differences between two treatment means. […] Differences with probabilities of 0.05 or less were accepted as significant. All data are expressed as means±SEM.

[3] = tested on: intact endothelium rat aortic rings; assay: NE-induced contraction of intact rat aortic rings after 16 h incubation with LPS and/or PKC inhibitors; type: cell-based; conditions: for EC50: Rattus norvegicus, 16 h, intact endothelium, read-out: EC50 value for NE stimulated contraction (EC50 of the agonist NE)
Method: FIG. 1 is a graph showing contraction to cumulative doses of NE by rat aortic rings incubated for 16 hr in combinations of control, LPS (endotoxin or lipopolysaccharide), H7, and N-(2-guanidinoethyl)-5-isoquinolinesulfonamide (HA1004; a negative control for H7) treated media. (Panel A) Responses by rings incubated in medium only (open circles), medium plus H7 (25 μM, closed circles), medium containing LPS (10 ng/ml, open triangles), and medium containing LPS plus H7 (closed triangles). (Panel B) For clarity in presentation, responses by rings incubated in medium only (open circles) and LPS treated medium (open triangles) are reproduced from Panel A. Additional rings were incubated in medium plus HA1004 (25 μM, closed circles), and medium containing LPS plus HA1004 (closed triangles). Six rings were prepared from each rat and one ring allocated into each medium formulation. […] The curves are the best fit of the data by nonlinear least squares to a polynomial model. N=8 rats.
as §1, §2, §3

cGMP dependent kinase = conditions: to an extent comparable to H7 (20); cited from earlier work
[4] = LPS 10 ng/ml plus inhibitor 25 μM
[5] = LPS-treated media (10 ng/ml), alone or plus inhibitor 25 μM
[6] = control media (no LPS) plus inhibitor 25 μM
[7] = inhibitor 25 μM by itself, no LPS

In the case of `N=C(N)NCCNS(=O)(=O)c1cccc2cnccc12` [HA1004, N-(2-guanidinoethyl)-5-isoquinolinesulfonamide], the “inhibition of myosin light chain kinase” value [1] is given as “inhibits”, the “inhibition of cAMP dependent kinase” value (cAMP dependent kinase) is given as “inhibits” and the “protection of maximal contractile performance to KCl” value ([2]; LPS 10 ng/ml plus HA1004 25 μM) is given as “small but significant protection of maximal contractile performance”. For the same compound, the “protection against LPS-induced contractile dysfunction (KCl)” value [2, 4] was “did not protect the tissue against LPS-induced diminished sensitivity to KCl”, the EC50 [2, 5] was 49 mM and the EC50 [2, 6] was 36 ± 3 mM. For the same compound, the “maximum contraction to KCl” value [2, 7] was “significant increases in maximum contraction; also recorded: augmented contractile responses to KCl”, the “sensitivity to KCl” value [2, 7] was “no enhancement in sensitivity to KCl” and the “EC50 and Emax (sensitivity and maximum contraction) to NE versus control tissue” value [3, 4] was “significantly depressed sensitivity (Table I) and maximum contraction (FIG. 1B) to NE”. The EC50 [3, 5] was 0.00276 mM, the EC50 [3, 6] was 0.000186 mM and the “blocking of LPS effects on contraction to NE” value ([3]; co-incubation, inhibitor 25 μM, LPS 10 ng/ml) was “ineffective in blocking the effects of LPS on the tissue”. For the same compound, the “contractile function / sensitivity to NE” value [3, 7] was “significant decrease in sensitivity to NE”, the “maximum contraction / ring responses to NE” value [3, 7] was “tended to suppress ring responses to NE; also recorded: apparent, but non-significant, diminution in maximum contraction” and the “inhibition of cGMP dependent kinase” value (cGMP dependent kinase) was “inhibits”.
